In patent publication US9650340B2, “5-fluoro-N-(pyridin-2-yl)pyridin-2-amine derivatives containing a sulfoximine group” (BAYER PHARMA AKTIENGESELLSCHAFT, priority 2012, dated 2017):
≈ marks a conversion by molar mass, not a printed value. Like-named read-outs stand apart in the source and are kept apart here.

Assays:
[1] = tested on: A2780, human ovarian carcinoma cells; test: Proliferation assay, A2780 (crystal violet); assay type: cell-based; conditions: A2780, 4 days, read-out: Inhibition of A2780 cell proliferation IC50
Method: Cultivated tumour cells (HeLa, human cervical tumour cells, ATCC CCL-2; NCI-H460, human non-small cell lung carcinoma cells, ATCC HTB-177; A2780, human ovarian carcinoma cells, ECACC #93112519; DU 145, hormone-independent human prostate carcinoma cells, ATCC HTB-81; HeLa-MaTu-ADR, multidrug-resistant human cervical carcinoma cells, EPO-GmbH Berlin; Caco-2, human colorectal carcinoma cells, ATCC HTB-37; B16F10, mouse melanoma cells, ATCC CRL-6475) were plated at a density of 5,000 cells/well (DU145, HeLa-MaTu-ADR), 3,000 cells/well (NCI-H460, HeLa), 2,500 cells/well (A2780), 1,500 cells/well (Caco-2), or 1,000 cells/well (B16F10) in a 96-well multititer plate in 200 μL of their respective growth medium supplemented 10% fetal calf serum. After 24 hours, the cells of one plate (zero-point plate) were stained with crystal violet (see below), while the medium of the other plates was replaced by fresh culture medium (200 μl), to which the test substances were added in various concentrations (0 μM, as well as in the range of 0.001-10 μM; the final concentration of the solvent dimethyl sulfoxide was 0.5%). The cells were incubated for 4 days in the presence of test substances. Cell proliferation was determined by staining the cells with crystal violet: the cells were fixed by adding 20 μl/measuring point of an 11% glutaric aldehyde solution for 15 minutes at room temperature. After three washing cycles of the fixed cells with water, the plates were dried at room temperature. The cells were stained by adding 100 μl/measuring point of a 0.1% crystal violet solution (pH 3.0). After three washing cycles of the stained cells with water, the plates were dried at room temperature. The dye was dissolved by adding 100 μl/measuring point of a 10% acetic acid solution. The extinction was determined by photometry at a wavelength of 595 nm. The change of cell number, in percent, was calculated by normalization of the measured values to the extinction values of the zero-point plate (=0%) and the extinction of the untreated (0 μm) cells (=100%). The IC50 values (inhibitory concentration at 50% of maximal effect) were determined by means of a 4 parameter fit. Non-adherent MOLM-13 human acute myeloid leukemia cells (DSMZ ACC 554) were seeded at a density of 5,000 cells/well in a 96-well multititer plate in 100 μL of growth medium supplemented 10% fetal calf serum. After 24 hours, cell viability of one plate (zero-point plate) was determined with the Cell Titre-Glo Luminescent Cell Viability Assay (Promega), while 50 μL of test compound containing medium was added to the wells of the other plates (final concentrations in the range of 0.001-10 μM and DMSO controls; the final concentration of the solvent dimethyl sulfoxide was 0.5%). Cell viability was assessed after 72-hour exposure with the Cell Titre-Glo Luminescent Cell Viability Assay (Promega).

[2] = Equilibrium shake flask solubility assay, thermodynamic solubility in citrate buffer pH 4; assay type: physicochemical; conditions: citrate buffer pH 4, 24 h, room temperature; for solubility at 24 h: citrate buffer, pH 4, aqueous buffer, thermodynamic from solid, read-out: Solubility in aqueous Citrate buffer pH4
Method: 4b) Thermodynamic Solubility in Citrate Buffer pH 4
Thermodynamic solubility was determined by an equilibrium shake flask method [Literature: Edward H. Kerns and Li Di (2008) Solubility Methods in: Drug-like Properties: Concepts, Structure Design and Methods, p276-286. Burlington, Mass.: Academic Press].
A saturated solution of the drug was prepared and the solution was mixed for 24 h to ensure that equilibrium has been reached. The solution was centrifuged to remove the insoluble fraction and the concentration of the compound in solution was determined using a standard calibration curve.
To prepare the sample, 1.5 mg solid compound was weighed in a 4 ml glass vial. 1 ml Citrate buffer pH 4 was added. The suspension was put on a stirrer and mixed for 24 hrs at room temperature. The solution was centrifuged afterwards. To prepare the sample for the standard calibration, 0.6 mg solid sample was dissolved in 19 ml acetonitrile/water 1:1. After sonification the solution was filled up with acetonitrile/water 1:1 to 20 ml.
Sample and standards were quantified by HPLC with UV-detection. For each sample two injection volumes (5 and 50 μl) in triplicates were made. Three injection volumes (5 μl, 10 μl and 20 μl) were made for the standard.
The areas of sample- and standard injections as well as the calculation of the solubility value (in mg/l) were determined by using HPLC software (Waters Empower 2 FR).

Caco-2 permeation assay = assay type: in vitro ADME, human; conditions: human; for Papp A→B at 2 h, 2 µM / Papp B→A at 2 h, 2 µM: Caco-2, pH 7.2, Caco-2, 2 μM test compound; for Papp A→B at 2 h, 2 µM: apical to basolateral, read-out: Papp A-B (Mari); for Papp B→A at 2 h, 2 µM: basolateral to apical, read-out: Papp B-A (Mari); for efflux ratio at 2 h, 2 µM: Caco-2, pH 7.2, Caco-2, 2 μM, Papp B-A / Papp A-B
Method: 5. Caco-2 Permeation Assay:
Caco-2 cells (purchased from DSMZ Braunschweig, Germany) were seeded at a density of 4.5×10^4 cells per well on 24 well insert plates, 0.4 μm pore size, and grown for 15 days in DMEM medium supplemented with 10% fetal bovine serum, 1% GlutaMAX (100×, GIBCO), 100 U/mL penicillin, 100 μg/mL streptomycin (GIBCO) and 1% non essential amino acids (100 ×). Cells were maintained at 37° C. in a humified 5% CO2 atmosphere. Medium was changed every 2-3 day. Before running the permeation assay, the culture medium was replaced by a FCS—free hepes-carbonate transport buffer (pH 7.2). For assessment of monolayer integrity the transepithelial electrical resistance (TEER) was measured. Test compounds were predissolved in DMSO and added either to the apical or basolateral compartment in final concentration of 2 μM in transport buffer. Before and after 2 h incubation at 37° C. samples were taken from both compartments. Analysis of compound content was done after precipitation with methanol by LC/MS/MS analysis. Permeability (Papp) was calculated in the apical to basolateral (A→B) and basolateral to apical (B→A) directions. The apparent permeability was calculated using following equation: Papp=(Vr/Po)(1/S)(P2/t)
Where Vr is the volume of medium in the receiver chamber, Po is the measured peak area or height of the test drug in the donor chamber at t=o, S the surface area of the monolayer, P2 is the measured peak area of the test drug in the acceptor chamber after 2 h of incubation, and t is the incubation time. The efflux ratio basolateral (B) to apical (A) was calculated by dividing the Papp B-A by the Papp A-B. In addition the compound recovery was calculated. The following reference compounds were used for the classification of the permeability class: Antipyrine, Pyrazosin, Verapamil, Fluvastatin, Cimetidine, Ranitidine, Atenolol, Sulfasalazine.

SMILES | IC50 ([1]; Homo sapiens, A2780, 96 h) | solubility at 24 h [2] | other results
COc1cc(CS(C)(=N)=O)cc(Nc2cc(-c3ccc(F)cc3OC)c(F)cn2)n1 (racemic) [Example 6, (rac)-5-Fluoro-4-(4-fluoro-2-methoxyphenyl)-N-{6-methoxy-4-[(S-methylsulfonimidoyl)methyl]pyridin-2-yl}pyridin-2-amine] | 11 nM |  | 
COc1cc(F)ccc1-c1cc(Nc2cc(CS(C)(=N)=O)cc(Cl)n2)ncc1F (racemic) [Example 7, (rac)-N-{6-Chloro-4-[(S-methylsulfonimidoyl)methyl]pyridin-2-yl}-5-fluoro-4-(4-fluoro-2-methoxyphenyl)pyridin-2-amine] | 27 nM |  | 
COc1cc(F)ccc1-c1cc(Nc2cc(CS(=N)(=O)CCN)ccn2)ncc1F (racemic) [Example 9, (rac)-N-(4-{[S-(2-Aminoethyl)sulfonimidoyl]methyl}pyridin-2-yl)-5-fluoro-4-(4-fluoro-2-methoxyphenyl)pyridin-2-amine] | 210 nM | 660 µg/mL (≈ 1520 µM) | 
CCOC(=O)N=S(C)(=O)Cc1ccnc(Nc2cc(-c3ccc(F)cc3OC)c(F)cn2)c1 (racemic) [Example 11, (rac)-Ethyl{[(2-{[5-fluoro-4-(4-fluoro-2-methoxyphenyl)pyridin-2-yl]amino}pyridin-4-yl)methyl](methyl)oxido-λ^6-sulfanylidene}carbamate] | 23 nM | 185 µg/mL (≈ 388 µM) | 
CCNC(=O)N=S(C)(=O)Cc1ccnc(Nc2cc(-c3ccc(F)cc3OC)c(F)cn2)c1 (racemic) [Example 12, (rac)-1-Ethyl-3-{[(2-{[5-fluoro-4-(4-fluoro-2-methoxyphenyl)pyridin-2-yl]amino}pyridin-4-yl)methyl](methyl)oxido-λ^6-sulfanylidene}urea] | 26 nM | 34 µg/mL (≈ 71.5 µM) | 
COc1cc(F)ccc1-c1cc(Nc2cc(CS(C)(=O)=NC(C)=O)ccn2)ncc1F (racemic) [Example 13, (rac)-N-{[(2-{[5-Fluoro-4-(4-fluoro-2-methoxyphenyl)pyridin-2-yl]amino}pyridin-4-yl)methyl](methyl)oxido-λ^6-sulfanylidene}acetamide] | 23 nM |  | 
COc1cc(F)ccc1-c1cc(Nc2cc(CS(C)(=N)=O)cc(C(F)(F)F)n2)ncc1F (racemic) [Example 21, (rac)-5-Fluoro-4-(4-fluoro-2-methoxyphenyl)-N-{4-[(S-methylsulfonimidoyl)methyl]-6-(trifluoromethyl)pyridin-2-yl}pyridin-2-amine] | 17 nM |  | Papp A→B at 2 h, 2 µM (Caco-2 permeation assay): 5.1 ×10⁻⁶ cm/s; Papp B→A at 2 h, 2 µM (Caco-2 permeation assay): 3.3 ×10⁻⁶ cm/s; efflux ratio at 2 h, 2 µM (Caco-2 permeation assay): 0.64
CCOc1cc(F)ccc1-c1cc(Nc2cc(CS(C)(=N)=O)cc(F)n2)ncc1F (racemic) [Example 26, (rac)-4-(2-Ethoxy-4-fluorophenyl)-5-fluoro-N-{6-fluoro-4-[(S-methylsulfonimidoyl)methyl]pyridin-2-yl}pyridin-2-amine] | 36 nM |  | 
CCS(=N)(=O)Cc1ccnc(Nc2cc(-c3ccc(F)cc3OC)c(F)cn2)c1 (racemic) [Example 30, (rac)-N-{4-[(S-Ethylsulfonimidoyl)-methyl]pyridin-2-yl}-5-fluoro-4-(4-fluoro-2-methoxyphenyl)pyridin-2-amine] |  |  | Papp A→B at 2 h, 2 µM (Caco-2 permeation assay): 18.6 ×10⁻⁶ cm/s; Papp B→A at 2 h, 2 µM (Caco-2 permeation assay): 17.2 ×10⁻⁶ cm/s; efflux ratio at 2 h, 2 µM (Caco-2 permeation assay): 0.92
COc1cc(F)ccc1-c1cc(Nc2cc(CS(C)(=O)=NC#N)ccn2)ncc1F (single isomer, unassigned) [Example 10, {[(2-{[5-Fluoro-4-(4-fluoro-2-methoxyphenyl)pyridin-2-yl]amino}pyridin-4-yl)methyl](methyl)oxido-λ^6-sulfanylidene}cyanamide] | 10 nM | 102 µg/mL (≈ 238 µM) | 
COc1cc(F)ccc1-c1cc(Nc2cc(CS(C)(=N)=O)ccn2)ncc1F (single isomer, unassigned; (+)) [Example 2, (+)-5-Fluoro-4-(4-fluoro-2-methoxyphenyl)-N-{4-[(S-methylsulfonimidoyl)methyl]pyridin-2-yl}pyridin-2-amine] |  |  | IC50 [1]: 110 nM; Papp A→B at 2 h, 2 µM (Caco-2 permeation assay): 16.6 ×10⁻⁶ cm/s; Papp B→A at 2 h, 2 µM (Caco-2 permeation assay): 18.6 ×10⁻⁶ cm/s
COc1cc(F)ccc1-c1cc(Nc2cc(CS(C)(=N)=O)cc(C)n2)ncc1F (single isomer, unassigned; (+)) [Example 32, (+)-5-Fluoro-4-(4-fluoro-2-methoxyphenyl)-N-{6-methyl-4-[(S-methylsulfonimidoyl)methyl]pyridin-2-yl}pyridin-2-amine] | 10 nM |  | 
COc1cc(F)ccc1-c1cc(Nc2cc(CS(C)(=N)=O)ccn2)ncc1F (single isomer, unassigned; (-)) [Example 3, (−)-5-Fluoro-4-(4-fluoro-2-methoxyphenyl)-N-{4-[(S-methylsulfonimidoyl)methyl]pyridin-2-yl}pyridin-2-amine] |  | 699 µg/mL (≈ 1730 µM) | IC50 [1]: 52 nM
COc1cc(F)ccc1-c1cc(Nc2cc(CS(C)(=N)=O)cc(C(F)(F)F)n2)ncc1F (single isomer, unassigned; (-)) [Example 23, (−)-5-Fluoro-4-(4-fluoro-2-methoxyphenyl)-N-{4-[(S-methylsulfonimidoyl)methyl]-6-(trifluoromethyl)pyridin-2-yl}pyridin-2-amine] |  |  | IC50 [1]: 11 nM; Solubility in aqueous Citrate buffer pH4 [2]: 45 mg/l
COc1cc(F)ccc1-c1cc(Nc2cc(CS(C)(=N)=O)ccn2)ncc1F.Cl (single isomer, unassigned; enantiomer 2) [Example 14, 5-Fluoro-4-(4-fluoro-2-methoxyphenyl)-N-{4-[(S-methylsulfonimidoyl)methyl]pyridin-2-yl}pyridin-2-amine hydrochloride; enantiomer 2] |  | 600 µg/mL | 
